Measurements as given in patent publication US8143421B2, “Broadspectrum substituted benzimidazole sulfonamide HIV protease inhibitors” (priority 2002, dated 2012).

Tests used:
mock-infected MT4 cells = experiment: in vitro
Description: (§1) HIV- or mock-infected MT4 cells were incubated for five days in the presence of various concentrations of the inhibitor. […] Cell viability is measured by measuring the concentration of MTT, a yellow, water soluble tetrazolium dye that is converted to a purple, water insoluble formazan in the mitochondria of living cells only. Upon solubilization of the resulting formazan crystals with isopropanol, the absorbance of the solution is monitored at 540 nm. The values correlate directly to the number of living cells remaining in the culture at the completion of the five day incubation. The inhibitory activity of the compound was monitored on the virus-infected cells and was expressed as IC50 and IC90. These values represent the amount of the compound required to protect 50% and 90%, respectively, of the cells from the cytopathogenic effect of the virus. […] The selectivity index (SI) (ratio CC50/IC50) is an indication of the selectivity of the anti-HIV activity of the inhibitor. Wherever results are reported as e.g. pIC50 or pCC50 values, the result is expressed as the negative logarithm of the result expressed as IC50 or CC50 respectively.
(§2) As a measure of the broad spectrum activity of the present compounds, the fold resistance (FR), defined as FR=IC50(mutant strain)/IC50(HIV-1 strain LAI), was determined.

mutant E = type: cell-based; settings: FR=IC50(mutant strain)/IC50(HIV-1 strain LAI)
Description: as §1
(§3) Because of the increasing emergence of drug resistant HIV strains, the present compounds were tested for their potency against clinically isolated HIV strains harboring several mutations. […] The viral strains R13025, R13027, R13028, R13029, R13034, R13080, T13127 and R13363 contained mutations as indicated below in Table 3.
as §2

HIV-1 strain LAI = experiment: Cellular anti-HIV assay, MT4 cells, MTT readout, wild type HIV-1 strain LAI; type: cell-based; settings: for pIC50 (LAI): MT4 cells, five days, HIV-1 strain LAI; for WT (pIC50 against wild type HIV-LAI strain): Table 4
Description: The compounds of the present invention were examined for anti-viral activity in a cellular assay. […] The cellular assay was performed according to the following procedure.

mutant B = experiment: Antiviral spectrum, fold resistance towards mutant B; type: cell-based; settings: FR=IC50(mutant strain)/IC50(HIV-1 strain LAI)
Description: (§4) Because of the increasing emergence of drug resistant HIV strains, the present compounds were tested for their potency against clinically isolated HIV strains harboring several mutations. These mutations are associated with resistance to protease inhibitors and result in viruses that show various degrees of phenotypic cross-resistance to the currently commercially available drugs such as for instance saquinavir, ritonavir, nelfinavir, indinavir and amprenavir. The viral strains R13025, R13027, R13028, R13029, R13034, R13080, T13127 and R13363 contained mutations as indicated below in Table 3.

mutant D = experiment: Antiviral spectrum, fold resistance towards mutant D; type: cell-based; settings: FR=IC50(mutant strain)/IC50(HIV-1 strain LAI)
Description: as §4

mutant C = experiment: Antiviral spectrum, fold resistance towards mutant C; type: cell-based; settings: FR=IC50(mutant strain)/IC50(HIV-1 strain LAI)
Description: as §4

mutant F = experiment: Antiviral spectrum, fold resistance towards mutant F; type: cell-based; settings: FR=IC50(mutant strain)/IC50(HIV-1 strain LAI)
Description: as §4

mutant A = type: cell-based; settings: FR=IC50(mutant strain)/IC50(HIV-1 strain LAI)
Description: as §1, §3, §2

mutant H = experiment: Antiviral spectrum, fold resistance towards mutant H; type: cell-based; settings: FR=IC50(mutant strain)/IC50(HIV-1 strain LAI)
Description: as §4

mutant G = experiment: Antiviral spectrum, fold resistance towards mutant G; type: cell-based; settings: FR=IC50(mutant strain)/IC50(HIV-1 strain LAI)
Description: as §4

[1] = pCC50 value as determined with mock transfected cells

| Molecule | Tox (pCC50) (mock-infected MT4 cells) | FR towards mutant E (mutant E) | pIC50 (LAI) (HIV-1 strain LAI; Table 1) | WT (pIC50 against wild type HIV-LAI strain) (HIV-1 strain LAI) | FR towards mutant B (mutant B) | FR towards mutant D (mutant D) | FR towards mutant C (mutant C) | FR towards mutant F (mutant F) | Tox (pCC50) (mock-infected MT4 cells; [1]) | FR value towards mutant A (mutant A) | FR towards mutant H (mutant H) | FR towards mutant G (mutant G) | pIC50 (LAI) (HIV-1 strain LAI; Table 2) |
| --- | --- | --- | --- | --- | --- | --- | --- | --- | --- | --- | --- | --- | --- |
| Cc1cccc(C)c1OCC(=O)N[C@@H](Cc1ccccc1)[C@H](O)CN(CC(C)C)S(=O)(=O)c1ccc2nc(N)n(C)c2c1 [Compound 13] | <4 | 4.5 | 7.7 | 7.7 | 3.4 | 3.4 | 2.5 | – | – | – | – | – | – |
| CC(C)CN(C[C@@H](O)[C@H](Cc1ccccc1)NC(=O)O[C@H]1CCOC1)S(=O)(=O)c1ccc2ncn(C)c2c1 [Compound 16] | <4.49 | 5.4 | 7.7 | 7.7 | – | 5.9 | 2.6 | 288 | – | – | – | – | – |
| COC(=O)Nc1nc2ccc(S(=O)(=O)N(CC(C)C)C[C@@H](O)[C@H](Cc3ccccc3)NC(=O)COc3c(C)cc(N(C)C)cc3C)cc2[nH]1 [Compound 19] | – | 3.5 | 7.5 | 7.5 | 1.2 | 3.6 | 1.4 | 83 | <4 | 5.6 | – | – | – |
| CC(C)CN(C[C@@H](O)[C@H](Cc1ccccc1)NC(=O)OCc1cncs1)S(=O)(=O)c1ccc2nc[nH]c2c1 [Compound 23] | <4 | 4.8 | 7.3 | 7.3 | 2.3 | 2.5 | 3.5 | 23 | – | 7.1 | – | – | – |
| CC(C)CN(C[C@@H](O)[C@H](Cc1ccccc1)NC(=O)OCc1cccnc1)S(=O)(=O)c1ccc2nc[nH]c2c1 [Compound 35] | – | 17 | 7.0 | 7.0 | – | – | – | – | <4 | 91 | 148 | – | – |
| Cc1cccc(C)c1OCC(=O)N[C@@H](Cc1ccccc1)[C@H](O)CN(CC(C)C)S(=O)(=O)c1ccc2nc(N)[nH]c2c1 [Compound 36] | 4.19 | 3.1 | 6.5 | 6.5 | – | – | – | – | – | 4.4 | 17 | – | – |
| CC(C)CN(CC(O)C(Cc1ccccc1)NC(=O)OC1COC2OCCC12)S(=O)(=O)c1ccc2nc(N)n(C)c2c1 (stereo not shown) [Compound 41] | <4 | 1.4 | 6.6 | 6.6 | – | – | – | – | – | 1.4 | 1.5 | – | – |
| CC(C)CN(C[C@@H](O)[C@H](Cc1ccccc1)NC(=O)OC(C)(C)C)S(=O)(=O)c1ccc2ncn(CCc3ccccc3)c2c1 [Compound 43] | – | 12.6 | 6.4 | 6.4 | – | – | – | – | 4.99 | 22 | 28 | – | – |
| Cc1cccc(C)c1OCC(=O)N[C@@H](Cc1ccccc1)[C@H](O)CN(CC(C)C)S(=O)(=O)c1ccc2ncn(CCc3ccccc3)c2c1 [Compound 47] | – | 7.8 | 6.4 | 6.4 | – | – | – | – | <4 | 14 | 66 | – | – |
| Cc1cc(OCC(=O)N[C@@H](Cc2ccccc2)[C@H](O)CN(CC(C)C)S(=O)(=O)c2ccc3nc[nH]c3c2)no1 [Compound 49] | – | 1.0 | 6.3 | 6.3 | – | – | – | – | <4 | 12 | 3.5 | – | – |
| CC(C)CN(C[C@@H](O)[C@H](Cc1ccccc1)NC(=O)OC1COC2OCCC12)S(=O)(=O)c1ccc2nc[nH]c2c1 (stereo partly shown) [Compound 50] | <4 | 0.83 | 6.9 | 6.9 | – | – | – | – | – | 1.4 | 2.8 | – | – |
| CC(C)CN(C[C@@H](O)[C@H](Cc1ccccc1)NC(=O)O[C@H]1CCOC1)S(=O)(=O)c1ccc2nc(NC(=O)NCCN(C)C)[nH]c2c1 [Compound 52] | <5 | 3.4 | 6.1 | 6.1 | 2.9 | 3.0 | 3.5 | 4.3 | – | 4.2 | – | – | – |
| CC(C)CN(C[C@@H](O)[C@H](Cc1ccccc1)NC(=O)OCc1cccnc1)S(=O)(=O)c1ccc2nc(N)[nH]c2c1 [Compound 54] | – | 0.42 | 5.8 | 5.8 | 0.40 | 0.46 | 0.42 | 1.7 | <4 | 1.6 | – | – | – |
| CC(C)CN(C[C@@H](O)[C@H](Cc1ccccc1)NC(=O)OC1COC2OCCC12)S(=O)(=O)c1ccc2nc(N)[nH]c2c1 (stereo partly shown) [Compound 59] | <4 | 0.31 | 5.3 | 5.3 | – | – | – | – | – | 1.5 | 0.39 | – | – |
| [(1S,2R)-2-hydroxy-3-[(2-methylpropyl)[[1-(2-methyl-propyl)benzimidazol-6-yl]sulfonyl]amino]-1-(phenylmethyl)propyl]carbamic acid, [(3R,3aS,6aR)-hexahydrofuro[2,3-b]furan-3-yl]ester [Compound 7] | – | 2.1 | 8.6 | 8.6 | – | 1.2 | 0.45 | 72 | <4 | – | – | 174 | – |
| [(1S,2R)-3-[[(1-methylbenzimidazol-5-yl)sulfonyl](2-methyl-propyl)amino]-2-hydroxy-1-(phenylmethyl)propyl]carbamic acid, [(3R,3aS,6aR)-hexahydrofuro[2,3-b]furan-3-yl]ester [Compound 64] | – | 1.5 | – | 7.6 | – | – | – | – | <4 | 4.3 | 13 | – | 7.6 |
